Two compounds from patent US9618513B2, “Compositions and methods for detecting and treating colorectal cancer” (The Regents of the University of Michigan, priority 2014, dated 2017) can be followed below.

Common to all, as to assay type: cell-based, human
The subject of one test is colon cancer cells. Description: Colon cancer cell proliferation (Ki67 FACS, H3 thymidine incorporation, cell counting). The text has this:
A. GSEA analysis identifies proliferation pathways have positive correlation with IL-22. B. Cell proliferation maker Ki67 was detected by FACS. C. H^3 Thymidine Incorporation was used to detect the function of IL-22 in cell proliferation. D. Cell number was counted after stimulated with IL-22. E. Cells isolated from colon cancer tissue (Tumor cells and Leukocytes) were stimulated with a-CD3 and […] for 3 days, and supernatant mixed with or without anti-IL-22 antibody was co-cultured with DLD1 cells for 24 h to test cell proliferation. F. Cell cyclin-dependent kinase and kinase inhibitors were analyzed by Real-Time PCR.
A, C. Cell proliferation was analyzed using H^3 Thymidine Incorporation. B. The level of total H3K79m2 and H3K27me3 was measured by Western Blot. D. PcG proteins of EZH2, EED, SUZ12 was increased with IL-22(20 ng/ml) treatment. E. EZH2, SUZ12 and EED was detected by Western Blot after IL-22 treated for 24 h or 48 h. F. EZH2 inhibitor DZNep reduced cell proliferation. G.H. The efficiency of EZH2 and SUZ12 knock down was tested by Western Blot. I.J. Cell proliferation was analyzed using H^3 Thymidine Incorporation after knock down of EZH2 and SUZ12. K.L. Relative expression of cyclin-dependent kinase inhibitors (p16 and p18) in shEZH2, shSUZ12 and Dznep treated cells after IL-22 treatment. M. The level of H3K27me3 in the promoter of p16 and p18 was analyzed by ChIP assay.
A. The protein level of phosphorylated STAT3, STAT1 and STATS were activated by IL-22. B. The effect of STAT3 knock down. C. The effect of IL-22 on cell proliferation was analyzed using H^3 Thymidine Incorporation in Stat3 knock down cells. D. Knock down of STAT3 reduced the expression of EZH2 and SUZ12. E. Based on the ENCODE STAT3-ChIP-Seq data base, STAT3 occupancy on the promoter areas of SUZ12 and EED is shown. F. SUZ12/EED DNA was detected by ChIP assay using an antibody against STAT3, c-fos was used as a positive control.
Three primary colon cancer cell lines (SB, WR, JR) were established from fresh colon tissues. These primary colon cancer cells and DLD1 (ATCC) were studied. Colon cancer cells were treated with recombinant IL-22 (R&D) for different time points. The EZH2 inhibitor DZNep was added in conventional or sphere culture (see, e.g., Kryczek, I., et al., (2012) International journal of cancer 130, 29-39). Tumor cell sphere formation and gene expression were examined (see, e.g., Kryczek, I., et al., (2012) International journal of cancer 130, 29-39).

A further test concerns SUZ12, Sox2. Description: SUZ12 and Sox2 expression after DOT1L/H3K79me2 inhibitor (FIG. 21A). Conditions: 10 uM.
For another test, the system named is ALDH1. In words: ALDH activity by FACS (aldefluor fluorescence). Particulars: DLD-1, HT29 and two primary colon cancer cell lines, IL-22 24 hours. The text has this:
(A), IL-22 is expressed in colon cancer tissues. IL-22 mRNA was detected by real-time PCR in colon cancer tissues and peripheral blood. *P<0.05 compared to blood, 20 colon cancer patients. (B-D), Endogenous IL-22 promotes colon carcinogenesis. Single cells (10^7) isolated from colon cancer tissue were mixed with anti-IL-22 antibody or control mAb, and then subcutaneously injected to NSG mice. Tumor growth (B), incidence (C), and animal survival (D) are shown. (P<0.05 for all, n=5 per group). (E-G) Recombinant IL-22 promotes colon carcinogenesis. DLD-1 colon cancer cells (10^5) were pre-incubated with IL-22 (20 ng/ml) for 1 hour, and then subcutaneously injected to NSG mice. […] ALDH activity was determined by FACS based on aldefluor fluorescence. […] Results are expressed as fold changes of ALDH expression. […] The mRNA of stem cell core gene was detected by real-time PCR (K) and proteins were detected by western blotting (L, M). […]
(A, B) IL-22 is expressed by immune cells in colon cancer tissues. Different cell populations were sorted from colon cancer tissues and IL-22 expression was measured by real time PCR. […] IL-22 was detected via ELISA. […] IL-22 was detected with ELISA (D) or intracellular staining (E). […] IL-22 mRNA was detected by real time PCR (F) and protein by ELISA (G). […] IL-22 expression was quantified with real-time PCR in the migrated and non-migrated cells. […]
(Flow cytometry measures light scatter and fluorescence of single cells or particles in a stream.)

For the compound `CC(C)N(CCCNC(=O)Nc1ccc(C(C)(C)C)cc1)C[C@H]1O[C@@H](n2ccc3c(N)ncnc32)[C@H](O)[C@@H]1O` [EPZ004777], in the test on colon cancer cells (H3 thymidine incorporation), the “colon cancer cell proliferation induced by IL-22” value is listed as “no influence”. Moreover, in the test with SUZ12, Sox2, the SUZ12 expression entry is reported as “no effect” and the Sox2 expression entry was “reduce”.

For the compound “IL-22: recombinant IL-22 (R&D systems), cytokine interleukin-22”, in the test on ALDH1, the “aldehyde dehydrogenase (ALDH1) activity” value is listed as “increased”. In addition, in the test on colon cancer cells (FACS), the “expression of Ki-67” value is given as “increased”. The cell proliferation entry in the test with colon cancer cells (H3 thymidine incorporation and cell number counting) is reported as “increased”.
